Results: patent US10568892B2, “Cycloartane tetracyclic triterpenoid compound, preparation method therefor and use thereof” (Hefei Cosource Pharmaceuticals Inc., priority 2016, dated 2020)

Assay: Pharmacokinetics in Beagle canines
Assay type: in vivo
Details: dog, in vivo
Method: Method: Six healthy male Beagle canines were selected and divided into two groups. 2 mg/kg of Compound 369 or cyclovirobuxine D was administrated intragastrically, respectively. Blood samples (about 2 mL) were collected from the limb venous of canines 0 h before administration as well as 0.25 h, 0.5 h, 1 h, 2 h, 4 h, 6 h, 8 h, and 12 h after administration. The concentrations of Compound 369 and cyclovirobuxine D in plasma samples were determined by LC-MS/MS, and the pharmacokinetic parameters were calculated by DAS.3.0 software.

CN[C@H]1CC[C@]23C[C@]24CC[C@]2(C)C(C(C)=O)=CC[C@@]2(C)[C@@H]4CC[C@H]3C1(C)C [Compound 369, (3β,5α)-4,4,14-trimethyl-3-(methylamino)-9,19-cyclopregnan-16-en-20-one]
Exposures in plasma (AUC and Cmax values) vs cyclovirobuxine D (in words): higher than that of cyclovirobuxine D
Half-life (T1/2) vs cyclovirobuxine D (in words): shorter than that of cyclovirobuxine D
AUC(0-t) (male, Beagle, po, 2 mg/kg): 505 ng·h/mL
Cmax (male, Beagle, po, 2 mg/kg): 43.4 ng/mL
Tmax (male, Beagle, po, 2 mg/kg): 2.67 h
half-life (male, Beagle, po, 2 mg/kg): 11.1 h
